The target of assay [1] is T1, hMcm10-ID (Homo sapiens, UniProt Q7L590).
T1 construct: hMcm10-ID (residues 237 to 436) were expressed in E. coli strain BL21(DE3); 6xHis (HRV 3C site) (N, cleaved yes); made in house; host or cells: E. coli BL21(DE3)
T1 sequence (Q7L590 237-436): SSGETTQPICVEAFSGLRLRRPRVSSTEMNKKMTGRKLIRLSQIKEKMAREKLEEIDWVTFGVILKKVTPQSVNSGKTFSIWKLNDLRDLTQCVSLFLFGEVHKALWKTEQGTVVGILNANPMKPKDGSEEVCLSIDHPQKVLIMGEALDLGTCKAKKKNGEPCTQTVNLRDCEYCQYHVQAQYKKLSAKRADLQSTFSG
Kind of assay: Surface plasmon resonance binding kinetics on immobilized hMcm10-ID (Biacore S200). The note with it: for surface plasmon resonance hMcm10-ID kd / kon: 25°C; for kon: read-out: surface plasmon resonance hMcm10-ID ka; for SPR binding kinetics (description of sensorgrams): immobilized hMcm10-ID. The protocol:
SPR experiments were performed using a Biacore S200 (GE Healthcare) equipped with a research-grade CM5 sensor chip. hMcm10-ID, at a concentration of 15 µg ml^−1 in 10 mM sodium acetate, pH 4.5, […], using an amine coupling kit (GE Healthcare) to either flow cell 2 or 4 following manufacturer directions. The reference flow cell (either flow cell 1 or 3) was left untreated. All compounds were dissolved in running buffer (10 mM PBS, 150 mM NaCl, 0.005% P20, pH 7.4) prior to injection over the chip surface at a flow rate of 30 µl min^−1 and at a temperature of 25°C. Zero concentration samples were injected for double referencing. Data were collected at a rate of 40 Hz and were fitted to a simple 1 : 1 interaction model (unless otherwise noted) using the global data analysis within the Biacore S200 evaluation software.

Assay [2] deals with T1, hMcm10-ID. Briefly: ABA injection SPR competition experiment with NF023 on hMcm10-ID. It counts as binding. As to conditions: competitor at 1× KD with NF023 at 10× KD (50 μM). How it is done: To explore this possibility, competition-based SPR experiments were conducted using the ABA injection method to determine if the slow binder iso-PPADS competes with the fast kinetic compound NF023 (figure 4). ABA injection allows solution A (NF023 at 10× its KD) to be injected over the surface with solution B (NF023 + competitor at 1× KD) in the same cycle. Competitive binding should result in little or no change in binding response between the A and B injections, whereas non-competitive binders are expected to produce an additive binding response.
For ABA competition SPR experiments, the CM5 chip surface was prepared as described in Materials and Methods. Solution A was prepared with 50 μM NF023 in running buffer while solution B was prepared with the competitor near its KD value (NF023 = 5 μM, suramin = 0.5 μM, and iso-PPADS = 30 μM) ± 50 μM NF023 in running buffer. Data were collected at a rate of 40 Hz and analyzed with the Biacore S200 Evaluation Software. For these experiments, hMcm10-ID was immobilized to the chip surface and NF023 at a concentration 10-fold higher than its KD. A running buffer control was performed to establish the baseline of the experiment. When buffer and NF023 were injected as solution B, there was a small decrease in RU due to slight buffer mismatch effects (Figure 5a). […] NF023, suramin, and iso-PPADS were chosen as competitors to be tested at concentrations equal to their respective KD values as determined by SPR.

For another assay, the system named is hTERT RPE-1 cells. Kind of assay: CellTiter-Glo cell viability assay, hTERT RPE-1. The note with it: Homo sapiens, hTERT-RPE1, 96 h; 4 days, intracellular ATP; mean ± s.e.m., n = 3. Type of assay: cell-based. The protocol: HCT116 cells were grown in McCoy's 5A medium (Corning 10-050-CV) supplemented with 10% FBS (Sigma F4135), 1% Pen Strep (Gibco 15140) and 1% L-Glutamine (Gibco 205030). hTERT RPE-1 cells were grown in DMEM/F12 medium (Gibco 11320) supplemented with 10% FBS (Sigma F4135) and 1% Pen Strep (Gibco 15140). Cells were cultured at 37°C and 5% CO2. Cells were plated at 250 cells (hTERT RPE-1) or 500 cells (HCT116) per well in white-walled 96-well plates (Costar 3610) and allowed to recover for 24 h. Stock solutions of each inhibitor were prepared in sterile 1× PBS (Gibco 14190), and further diluted in the appropriate growth medium for each cell type. Cells were allowed to grow for 4 days in inhibitor containing medium and cell viability was measured with the CellTiter-Glo Luminescent Cell Viability Assay (Promega G7572) following the manufacturer's instructions. Viability of each drug treatment condition was normalized to the untreated control for each cell line and fitted to the sigmoidal dose–response variable slope four parameter equation in GraphPad Prism 6.0.

The mark [3] stands for this setting: calculated from association and dissociation rate constants, 1:1 model, 6000–8000 RU, read-out: surface plasmon resonance hMcm10-ID kinetic KD.

Entries after “also recorded” stand apart in the source; their conditions may differ. Structures can show the parent of a compound that is named as a salt. Where two headings read alike, the source gives them in different places.

Regarding `O=C(Nc1cccc(C(=O)Nc2ccc(S(=O)(=O)O)c3cc(S(=O)(=O)O)cc(S(=O)(=O)O)c23)c1)Nc1cccc(C(=O)Nc2ccc(S(=O)(=O)O)c3cc(S(=O)(=O)O)cc(S(=O)(=O)O)c23)c1` [NF023], at hMcm10-ID [1] (1:1 model, 6000–8000 RU), the “surface plasmon resonance hMcm10-ID kd” value came to 1.6 ± 0.2 s^−1 and the kon was found to be 360000 ± 2e+09 M⁻¹ s⁻¹. In addition, the Kd on hMcm10-ID [1] (setting [3]) is 4.7 ± 0.8 µM. Also, the “SPR binding kinetics (description of sensorgrams)” value (“SPR binding kinetics” below) on hMcm10-ID [1] is “rapid association and dissociation”. Moreover, the “competition with NF023 for binding to hMcm10-ID (ABA SPR)” value (from here on “competition with NF023 for binding”) at hMcm10-ID [2] is “consistent with a competitive interaction”.
Turning to `O=C(Nc1cccc(C(=O)Nc2cc(C(=O)Nc3ccc(S(=O)(=O)O)c4cc(S(=O)(=O)O)cc(S(=O)(=O)O)c34)ccc2F)c1)Nc1cccc(C(=O)Nc2cc(C(=O)Nc3ccc(S(=O)(=O)O)c4cc(S(=O)(=O)O)cc(S(=O)(=O)O)c34)ccc2F)c1` [NF157], at hMcm10-ID [1] (1:1 model, 6000–8000 RU), the “surface plasmon resonance hMcm10-ID kd” value is 0.0032 ± 0.0001 s^−1 and the kon was determined as 7400 ± 600000 M⁻¹ s⁻¹. The Kd at hMcm10-ID [1] (setting [3]) was 0.46 ± 0.05 µM. The “SPR binding kinetics” value at hMcm10-ID [1] is “predominantly rapid kinetics”. Moreover, 120 ± 16 µM corresponded to half-maximal inhibition with hTERT RPE-1 cells (IC50).
For the compound `Cc1nc(/N=N/c2ccc(S(=O)(=O)O)cc2S(=O)(=O)O)c(COP(=O)(O)O)c(C=O)c1O` [PPADS, pyridoxalphosphate-6-azophenyl-2’, 4’-disulfonic acid tetrasodium salt], at hMcm10-ID [1] (1:1 model, 6000–8000 RU), the “surface plasmon resonance hMcm10-ID kd” value amounted to 0.0013 ± 0.0001 s^−1 and the kon was found to be 29 ± 8 M⁻¹ s⁻¹. In addition, at hMcm10-ID [1] (setting [3]), the Kd was 57 ± 9 µM. Further, the “SPR binding kinetics” value at hMcm10-ID [1] was “slow association and dissociation kinetics; also recorded: slow on and off rates”. In addition, 400 ± 14 µM corresponded to half-maximal inhibition in the assay with hTERT RPE-1 cells (IC50).
As to `Cc1nc(/N=N/c2cc(S(=O)(=O)O)ccc2S(=O)(=O)O)c(COP(=O)(O)O)c(C=O)c1O` [iso-PPADS, pyridoxalphosphate-6-azophenyl-2’, 5’-disulfonic acid tetrasodium salt], on hMcm10-ID [1] (1:1 model, 6000–8000 RU), the “surface plasmon resonance hMcm10-ID kd” value is on record as 0.0015 ± 0.0001 s^−1 and the kon amounted to 47 ± 8 M⁻¹ s⁻¹. Moreover, at hMcm10-ID [1] (setting [3]), the Kd is 40 ± 9 µM. For the same compound, the “SPR binding kinetics” value at hMcm10-ID [1] was “slow on- and off-rates”. For the same compound, inhibition in the assay with hTERT RPE-1 cells was half-maximal at 560 ± 55 µM (IC50). Besides, on hMcm10-ID [2], the “competition with NF023 for binding” value was “neither compound showed additive binding”.
For `Cc1ccc(C(=O)Nc2ccc(S(=O)(=O)O)c3cc(S(=O)(=O)O)cc(S(=O)(=O)O)c23)cc1NC(=O)c1cccc(NC(=O)Nc2cccc(C(=O)Nc3cc(C(=O)Nc4ccc(S(=O)(=O)O)c5cc(S(=O)(=O)O)cc(S(=O)(=O)O)c45)ccc3C)c2)c1` [suramin, suramin sodium salt], on hMcm10-ID [1] (1:1 model, 6000–8000 RU), the “surface plasmon resonance hMcm10-ID kd” value worked out at 0.16 ± 0.03 s^−1 and the kon was determined as 290000 ± 7e+09 M⁻¹ s⁻¹. Moreover, the Kd on hMcm10-ID [1] (3000 RU of hMcm10-ID immobilized, read-out: SPR kinetic KD at lower surface density) was 0.65 µM. For the same compound, at hMcm10-ID [1] (setting [3]), the Kd was 0.57 ± 0.06 µM. The “SPR binding kinetics” value on hMcm10-ID [1] is on record as “predominantly rapid kinetics”. For the same compound, inhibition with hTERT RPE-1 cells was half-maximal at 400 ± 22 µM (IC50). Further, at hMcm10-ID [2], the “competition with NF023 for binding” value is “neither compound showed additive binding”.
